Consider 19 compounds from patent publication US7109243B2 (IRM LLC, priority 2003, dated 2006).

The target of one experiment is T1, Cathepsin K (Homo sapiens, UniProt P43235).
T1 sequence (P43235 115-329): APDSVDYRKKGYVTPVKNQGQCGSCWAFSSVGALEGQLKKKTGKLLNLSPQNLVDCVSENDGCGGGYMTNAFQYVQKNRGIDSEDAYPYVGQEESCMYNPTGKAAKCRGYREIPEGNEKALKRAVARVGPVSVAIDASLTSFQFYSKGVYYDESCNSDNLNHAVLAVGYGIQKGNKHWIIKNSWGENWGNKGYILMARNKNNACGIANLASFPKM
Nature of the experiment: Cathepsin K inhibition assay (fluorogenic peptide substrate); selectivity ratio vs cathepsin S. It counts as biochemical. Conditions: ratio of cathepsin K inhibition constant to cathepsin S inhibition constant; Table II. The method in brief:
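Inhibition constants for competitive inhibitors come from apparent values fitted to enzyme progress curves. Substrate, acetyl-Lys-His-Pro-Lys-aminocarbamoylcoumarin (40 μM final), starts the reaction; fluorescence rise read at 380 nm excitation, 450 nm emission. Selectivity ratio: other cathepsin constant over cathepsin S constant.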

A further experiment has as its target Cathepsin S (Homo sapiens, UniProt P25774). The experiment in a line: Cathepsin S inhibition assay (fluorogenic peptide substrate). The settings on record: Table II, compounds of Formula I; read-out: Ki Cat. S. The class given is biochemical. A digest of the protocol:
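Ki values come from nonlinear fitting of inhibited hydrolysis rates, taking free and total inhibitor concentrations as equal. Rates measured as rising fluorescence at 380/450 nm after reaction start with 50 μM final acetyl-HPVK-aminocarbamoylcoumarin.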

Cathepsin S, sequence (P25774 115-331, species assumed): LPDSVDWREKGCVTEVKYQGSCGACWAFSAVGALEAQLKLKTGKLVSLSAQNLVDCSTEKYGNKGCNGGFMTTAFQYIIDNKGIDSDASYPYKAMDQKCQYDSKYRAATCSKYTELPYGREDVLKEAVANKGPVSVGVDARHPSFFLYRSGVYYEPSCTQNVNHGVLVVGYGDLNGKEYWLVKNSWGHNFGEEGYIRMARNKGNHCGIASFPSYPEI

With `COc1ccc(NCCNC(=O)[C@H](Cc2ccccc2)NC(=O)c2cccnc2)cc1` [Compound 63, (S)-N-{1-[2-(4-Methoxy-phenylamino)-ethylcarbamoyl]-2-phenyl-ethyl}-nicotinamide], on Cathepsin K, the “Selectivity for Cat. S over Cat. K” value was “+ (+, >10)”. Further, at Cathepsin S, the Ki is < 10000 nM.
Turning to `COc1ccc(NCCNC(=O)[C@H](Cc2ccccc2)NC(=O)c2ccncc2)cc1` [Compound 64, (S)-N-{1-[2-(4-Methoxy-phenylamino)-ethylcarbamoyl]-2-phenyl-ethyl}-isonicotinamide], the “Selectivity for Cat. S over Cat. K” value at Cathepsin K is recorded as “+ (+, >10)”. For the same compound, on Cathepsin S, the Ki is < 10000 nM.
Regarding `O=C(N[C@@H](CC1CCCCC1)C(=O)NCCNc1ccc(OC(F)(F)F)cc1)c1ccc(-c2ccccc2)o1` [Compound 65, 5-Phenyl-furan-2-carboxylic acid (S)-{2-cyclohexyl-1-[2-(4-trifluoromethoxy-phenylamino)-ethylcarbamoyl]-ethyl}-amide], the “Selectivity for Cat. S over Cat. K” value at Cathepsin K is “++ (++, >100)”. Moreover, the Ki on Cathepsin S is < 100 nM.
As for `COc1ccc(NCCNC(=O)[C@H](Cc2ccc(Oc3ccccc3C)cc2)NC(=O)c2cccc(C)c2)cc1` [Compound 66, (S)-N-[1-[2-(4-Methoxy-phenylamino)-ethylcarbamoyl]-2-(4-o-tolyloxy-phenyl)-ethyl]-3-methyl-benzamide], the “Selectivity for Cat. S over Cat. K” value at Cathepsin K was “++ (++, >100)”. For the same compound, the Ki on Cathepsin S is < 1000 nM.
For the compound `O=C(N[C@@H](CC1CCCCC1)C(=O)NCCNc1ccc(OC(F)(F)F)cc1)c1ccc(-c2cnco2)cc1` [Compound 67, N-(S)-{2-cyclohexyl-1-[2-(4-trifluoromethoxy-phenylamino)-ethylcarbamoyl]-ethyl}-4-oxazol-5-yl-benzamide], the “Selectivity for Cat. S over Cat. K” value at Cathepsin K is “+ (+, >10)”. In addition, the Ki on Cathepsin S was < 100 nM.
Take `Cc1ccc(-c2ccc(C(=O)N[C@@H](CC3CCCCC3)C(=O)NCCNc3ccc(OC(F)(F)F)cc3)o2)cc1` [Compound 70, 5-p-Tolyl-furan-2-carboxylic acid (S)-{2-cyclohexyl-1-[2-(4-trifluoromethoxy-phenylamino)-ethylcarbamoyl]-ethyl}-amide]: the “Selectivity for Cat. S over Cat. K” value at Cathepsin K is on record as “+++ (+++, >1000)”. The Ki at Cathepsin S was < 100 nM.
In the case of `Cc1cc(C)nc(N(C)c2cccc(C(=O)N[C@@H](CC3CCCCC3)C(=O)NCCNc3ccc(OC(F)(F)F)cc3)c2)n1` [Compound 71, N-(S)-{2-cyclohexyl-1-[2-(4-trifluoromethoxy-phenylamino)-ethylcarbamoyl]-ethyl}-3-[(4,6-dimethyl-pyrimidin-2-yl)-methyl-amino]-benzamide], the “Selectivity for Cat. S over Cat. K” value on Cathepsin K is given as “++ (++, >100)”. The Ki on Cathepsin S was < 100 nM.
For `Cc1cc(C)nc(N2CCC(C(=O)N[C@@H](CC3CCCCC3)C(=O)NCCNc3ccc(OC(F)(F)F)cc3)CC2)n1` [Compound 72, 1-(4,6-Dimethyl-pyrimidin-2-yl)-piperidine-4-carboxylic acid (S)-{2-cyclohexyl-1-[2-(4-trifluoromethoxy-phenylamino)-ethylcarbamoyl]-ethyl}-amide], the “Selectivity for Cat. S over Cat. K” value on Cathepsin K was “++ (++, >100)”. Further, the Ki at Cathepsin S was < 10000 nM.
On to `COc1cc(OC)nc(Oc2cccc(C(=O)N[C@@H](CC3CCCCC3)C(=O)NCCNc3ccc(OC(F)(F)F)cc3)c2)n1` [Compound 73, N-(S)-{2-cyclohexyl-1-[2-(4-trifluoromethoxy-phenylamino)-ethylcarbamoyl]-ethyl}-3-(4,6-dimethoxy-pyrimidin-2-yloxy)-benzamide], for which, on Cathepsin K, the “Selectivity for Cat. S over Cat. K” value is “++ (++, >100)”. Besides, the Ki at Cathepsin S was < 100 nM.
For the compound `COc1cccc(-c2cccc(C(=O)N[C@@H](CC3CCCCC3)C(=O)NCCNc3ccc(OC(F)(F)F)cc3)c2)c1` [Compound 74, 3′-Methoxy-biphenyl-3-carboxylic acid (S)-{2-cyclohexyl-1-[2-(4-trifluoromethoxy-phenylamino)-ethylcarbamoyl]-ethyl}-amide], at Cathepsin K, the “Selectivity for Cat. S over Cat. K” value is on record as “+++ (+++, >1000)”. Further, the Ki at Cathepsin S is < 100 nM.
`CC[C@@H](C(=O)N[C@@H](CCC1CCCCC1)C(=O)NCCNc1ccc(OC)cc1)c1ccccc1` [Compound 75, N-{3-Cyclohexyl-1-(S)-[2-(4-methoxy-phenylamino)-ethylcarbamoyl]-propyl}-2-(R)-phenyl-butyramide]: at Cathepsin K, the “Selectivity for Cat. S over Cat. K” value is reported as “+++ (+++, >1000)”. In addition, the Ki on Cathepsin S was < 100 nM.
With `O=C(Cc1cccs1)N[C@@H](CC1CCCCC1)C(=O)NCCNc1ccc(F)cc1` [Compound 76, 3-Cyclohexyl-N-[2-(4-fluoro-phenylamino)-ethyl]-2-(S)-(2-thiophen-2-yl-acetylamino)-propionamide], the “Selectivity for Cat. S over Cat. K” value at Cathepsin K is on record as “+++ (+++, >1000)”. Besides, the Ki on Cathepsin S is < 100 nM.
Consider `O=C(Cc1ccsc1)N[C@@H](CC1CCCCC1)C(=O)NCCNc1ccc(F)cc1` [Compound 77, 3-Cyclohexyl-N-[2-(4-fluoro-phenylamino)-ethyl]-2-(S)-(2-thiophen-3-yl-acetylamino)-propionamide], for which the “Selectivity for Cat. S over Cat. K” value on Cathepsin K is “++ (++, >100)”. Besides, the Ki on Cathepsin S was < 100 nM.
Turning to `COc1ccc(NCCNC(=O)[C@H](Cc2ccccc2)NC(=O)c2cccc(Br)c2)cc1` [Compound 78, (S)-3-Bromo-N-{1-[2-(4-methoxy-phenylamino)-ethylcarbamoyl]-2-phenyl-ethyl}-benzamide], the “Selectivity for Cat. S over Cat. K” value at Cathepsin K is “+ (+, >10)”. Moreover, the Ki on Cathepsin S was < 100 nM.
For the compound `CC(=O)N1CCC(C(=O)N[C@@H](CC2CCCCC2)C(=O)NCCNc2ccc(F)cc2)CC1` [Compound 79, 1-Acetyl-piperidine-4-carboxylic acid (S)-{2-cyclohexyl-1-[2-(4-fluoro-phenylamino)-ethylcarbamoyl]-ethyl}-amide], the “Selectivity for Cat. S over Cat. K” value at Cathepsin K is “+ (+, >10)”. At Cathepsin S, the Ki is < 10000 nM.
Consider `COc1cc(OC)nc(-c2ccc(C(=O)N[C@@H](CC3CCCCC3)C(=O)NCCNc3ccc(OC(F)(F)F)cc3)cc2)n1` [Compound 80, N-(S)-{2-cyclohexyl-1-[2-(4-trifluoromethoxy-phenylamino)-ethylcarbamoyl]-ethyl}-4-(4,6-dimethoxy-pyrimidin-2-yl)-benzamide], for which the “Selectivity for Cat. S over Cat. K” value on Cathepsin K is given as “+++ (+++, >1000)”. The Ki at Cathepsin S was < 1000 nM.
In the case of `O=C(N[C@@H](CC1CCCCC1)C(=O)NCCNc1ccc(OC(F)(F)F)cc1)C1CCN(c2ncc(Br)cn2)CC1` [Compound 81, 1-(5-Bromo-pyrimidin-2-yl)-piperidine-4-carboxylic acid (S)-{2-cyclohexyl-1-[2-(4-trifluoromethoxy-phenylamino)-ethylcarbamoyl]-ethyl}-amide], on Cathepsin K, the “Selectivity for Cat. S over Cat. K” value is “++ (++, >100)”. Also, at Cathepsin S, the Ki is < 1000 nM.
Regarding `COc1ccc(NCCNC(=O)[C@H](Cc2ccccc2)NC(=O)CC2C=CCC2)cc1` (stereo partly drawn) [Compound 82, (S)-2-(2-Cyclopent-2-enyl-acetylamino)-N-[2-(4-methoxy-phenylamino)-ethyl]-3-phenyl-propionamide], the “Selectivity for Cat. S over Cat. K” value on Cathepsin K is “+ (+, >10)”. In addition, the Ki at Cathepsin S is < 1000 nM.
For `O=C(Cc1c[nH]c2ccccc12)NC(CC1CCCCC1)C(=O)NCCNc1ccc(F)cc1` (centres unmarked) [Compound 83, 3-Cyclohexyl-N-[2-(4-fluoro-phenylamino)-ethyl]-2-(2-1H-indol-3-yl-acetylamino)-propionamide], at Cathepsin K, the “Selectivity for Cat. S over Cat. K” value is listed as “++ (++, >100)”. Moreover, the Ki at Cathepsin S was < 100 nM.
